Measured values taken from the NIST ThermoML archive (doi:10.1021/je034251+).
Numbers after ± are expanded uncertainties.

Settings: for mass density: isochoric method

COC [dimethyl ether]
Settings	Critical temperature [K]	mass density [kg/m3]
301.82 K, Liquid	–	654.54 ± 0.33
320.08 K, Liquid	–	623.9 ± 0.33
330.63 K, Liquid	–	604.34 ± 0.33
339.47 K, Liquid	–	585.82 ± 0.33
347.34 K, Liquid	–	567.13 ± 0.32
359 K, Liquid	–	540.45 ± 0.32
365.69 K, Liquid	–	522.25 ± 0.32
366.69 K, Gas	–	66.75 ± 0.2
372.15 K, Liquid	–	503.13 ± 0.32
378.81 K, Liquid	–	479.19 ± 0.32
380.95 K, Gas	–	96.42 ± 0.2
384.5 K, Liquid	–	454.66 ± 0.32
390.86 K, Gas	–	130.05 ± 0.21
393.65 K, Liquid	–	405.87 ± 0.32
396.06 K, Gas	–	161.3 ± 0.22
398.21 K, Liquid	–	361.58 ± 0.34
399.34 K, Gas	–	203.55 ± 0.28
400.32 K, Liquid	–	299.12 ± 0.43
400.35 K, Gas	–	253.84 ± 0.54
400.35 K, Liquid	–	285.01 ± 0.47
400.36 K, Gas	–	264.02 ± 0.63
400.36 K, Liquid	–	278.92 ± 0.49
400.38 K, Liquid	–	276.19 ± 0.5
Liquid, Visual observation in an unstirred cell	400.38 ± 0.062	–

Settings	Critical density [kg/m3]
Liquid	272 ± 2
